Values joined by “and” are separate entries in the source; they are usually repeats but may differ in a detail not shown here. Identical values can stand only once. “Also recorded” adds a separate entry of the source. Like-named read-outs stand apart in the source and are kept apart here.
Columns and labels:
[1] = tested on: AM (RA-treated hiPS-CMs, atrial-like); experiment: High-throughput membrane potential recording (FluoVolt, FDSS/μCell) in AM; assay type: cell-based, human; settings: for cessation of beating (cases): count of cases; for rising slope of membrane potential (in words): concentration range as stated in the source
Protocol: (§1) Using a high-throughput screening system (FDSS/μCell), we assessed the drug toxicity of several experimental drugs on hiPS-derived atrial myocytes as well as control hiPS-derived cardiomyocytes. Membrane potential was used as one of the parameters during the assessment.
(§2) After purification, hiPS-derived cardiomyocytes were plated in 96-well plates for downstream drug response assessment using FluoVolt™ Membrane Potential Kit. […] The comparison of variance in the response of drug administration in CT and AM was represented by the percentage of changes based on their baseline values respectively.
(§3) FluoVolt™ Membrane Potential Kit (ThermoFisher […], F10488, Massachusetts, United States) was used to measure membrane potentials. The basic procedure was performed in accordance with the manufacturer’s instructions. […] MP were recorded at excitation and emission stages at wavelengths of 470 and 540 nm, respectively. […] Stock solutions of the test compounds were prepared in 100% DMSO, and serially diluted 1/40 into compound plates for testing (0.5% DMSO was the maximum concentration in all wells). The compounds were automatically pipetted from the compound plate, and 12 μL was loaded in the wells already containing the cells with 48 μL of media. Recording data were analyzed using Waveform Analysis of Cardiomyocyte Software (Ver.1.2.1J, Hamamatsu Photonics K.K.). Data values for a well were averaged from waveforms that arose during 30 s. The beat rate (BR; beats per minute), waveform amplitude (AMP), and duration at 30, 50, and 80% of decay (PWD30, PWD 50, and PWD 80, respectively) were used as evaluation parameters. PWDs were corrected using the Fridericia formula. PWD30-80 was calculated as the difference between PWD80 and PWD30. Each parameter was calculated as percentage change (%) from the value before test compound addition.

[2] = tested on: CT (control hiPS-CMs without RA, ventricular-like); experiment: High-throughput membrane potential recording (FluoVolt, FDSS/μCell) in CT; assay type: cell-based, human; settings: for Falling Slope / PWD30cF / PWD80cF / Rising Slope: % change from value before compound addition, 10 min after addition (Bay K 8644: 3 min)
Protocol: as §1, §2, §3

[3] = tested on: ventricular myocytes of guinea pigs; set-up: method as in Delaunois et al., 2015; settings: 75 μM; ref Delaunois et al., 2015; cited from earlier work
[4] = tested on: cardiac Na+ channel (Nav1.5); settings: cited from earlier work
[5] = tested on: Cav1.2 current; set-up: method as in Kramer et al., (2013), Harmer et al., (2011); settings: ref Kramer et al., (2013), Harmer et al., (2011); cited from earlier work
[6] = tested on: atrial refractory period; set-up: method as in Knobloch et al., 2002; settings: ref Knobloch et al., 2002; cited from earlier work
[7] = tested on: ventricular function and porcine ventricular myocytes; set-up: method as in Knobloch et al., 2002; settings: ref Knobloch et al., 2002; cited from earlier work
[8] = tested on: human atrial myocytes; set-up: method as in Lagrutta et al., 2006; settings: ref Lagrutta et al., 2006; cited from earlier work
[9] = % change from value before compound addition, 10 min after addition (Bay K 8644: 3 min)
[10] = concentration range as stated in the source

concentration at which cessation of beating was elicited [2] | Structure (SMILES) | incidence of arrhythmia-like waveforms: arrest ([1]; 30 μM) [%] | incidence of arrhythmia-like waveforms: arrest ([1]; 100 μM) [%] | Rising Slope [1, 9] | rising slope of membrane potential (in words) [1] | amplitude of membrane potential (in words) [2] | membrane potential duration (in words) [2] | incidence of arrhythmia-like waveforms: arrest ([2]; 30 μM) [%] | incidence of arrhythmia-like waveforms: arrest ([2]; 100 μM) [%] | Falling Slope [2] | PWD30cF [2] | PWD80cF [2] | Rising Slope [2] | falling slope of membrane potential (in words) [2, 10] | rising slope of membrane potential (in words) [2, 10] | incidence of arrhythmia-like waveforms: arrest ([1]; 10 μM) [%] | PWD30cF (in words) [1] | PWD50cF (in words) [1] | PWD30cF [1, 9] | also measured
above 30 μM | NC(=O)N1c2ccccc2C=Cc2ccccc21 [Carbamazepine] | 50 | 83 | ↓ | decrease | decrease | shortened | 8 | 92 | ↑ | ↓ | ↓ | ↓ | increase | decrease |  |  |  |  | other parameters of membrane potential (in words) [1]: no obvious change was observed; cessation of beating (cases) ([1]; 30 μM): half the cases; cessation of beating (cases) ([1]; 100 μM): 5 of 6; concentration at which irregular beating or EAD appeared [2]: above 30 μM; incidence of arrhythmia-like waveforms: irregular beat ([2]; 30 μM): 25%; incidence of arrhythmia-like waveforms: irregular beat ([2]; 100 μM): 8%; cessation of beating (cases) ([2]; 100 μM, count of cases): 11 of 12; beating rate (in words) [2, 10]: decrease; APD50 [3]: shortening; APD90 [3]: shortening; Vmax [3]: decrease; IC50 ([4]; ref Harmer et al., 2011, read-out: IC50 cardiac Na+ channel (Nav1.5)): 152 µM
higher than 30 μM | O=C1NC(=O)C(c2ccccc2)(c2ccccc2)N1 [Phenytoin] | 67 | 100 | ↓ | dose-dependent decrease |  | slight shortening | 83 | 100 | ↑ |  |  | ↓ | increase | dose-dependent decrease | 50 |  |  |  | IC50 [5]: 21.9 µM; IC50 ([4]; ref Kramer et al., (2013), Harmer et al., (2011), read-out: IC50 cardiac Nav1.5 current): 72.4 µM and 121 µM
 | O=C(NCc1ccccc1-c1ccccc1C(=O)NCCc1ccccn1)OCc1ccccc1 [S9947] |  |  |  |  | decrease |  |  |  | ↑ | ↓ | ↓ | ↓ |  |  | 100 | prolongation | prolongation | ↑ | membrane potential duration (in words) [1]: dose-dependent increase; cessation of beating / arrest (cases) ([1]; 10 μM, count of wells): All; PWD80cF [1, 9]: ↑; incidence of arrhythmia-like waveforms: arrest ([2]; 10 μM): 50%; cessation of beating / arrest (cases) ([2]; 10 μM, count of cases): half; atrial refractory period [6]: prolonged; ventricular function and porcine ventricular myocytes [7]: did not affect
 | CC(C)[C@@H]1CC[C@@H](C)C[C@@H]1P(=O)(c1ccccc1)c1ccccc1 [DPO-1] |  |  |  |  |  |  |  |  |  |  |  |  |  |  |  | dose-dependent increases; also recorded: prolongation | dose-dependent increases; also recorded: prolongation | ↑ | action potentials in human atrial myocytes [8]: prolongation of action potentials
